# What was measured:
# plasma protein = settings: cited from earlier work; for Protein binding: ref Drugbank database (go.drugbank.com)
# [1] = for AUC in tumor tissues, fold higher than in the normal fatpad: i.v. injection
# [2] = ref Drugbank database (go.drugbank.com); cited from earlier work
# in vivo = settings: female, MMTV-PyMT (FVB/NJ background), mouse; for Kp: AUCtissue/AUCplasma
# albumin = settings: cited from earlier work
"AUCtumor (oral 5 mg/kg, tumor)","AUC (in vivo; po, 5 mg/kg)","bioavailability (in vivo; po, 5 mg/kg)","Kp (in vivo; po, Kpbone, bone)","Kp (in vivo; po, Kpfatpad, fatpad)","Kp (in vivo; po, Kptumor, tumor)",Structure (SMILES),Protein binding (plasma protein),LogP [2],LogS [2],pKa [2],also measured
2886.5,114 ng·h/mL,32.4%,5,10.9,25.3,"CC/C(=C(\c1ccc(O)cc1)c1ccc(OCCN(C)C)cc1)c1ccccc1 [Afimoxifene, afimoxifene]",99%,5.44,−5.1,–,"tissue selectivity compared to tamoxifen and toremifene, in words ([1]; i.v. 2.5 mg/kg): higher lung but lower pancreas selectivity; exposure difference in the kidney, afimoxifene vs droloxifene ([1]; i.v. 2.5 mg/kg, AUC ratio): 4.8 fold; exposure difference in the liver, afimoxifene vs droloxifene ([1]; i.v. 2.5 mg/kg, AUC ratio): 6.8 fold; AUC in tumor tissues, fold higher than in the normal fatpad [1]: 2.2 fold"
3238.8,127 ng·h/mL,45.3%,7.7,9.5,25.6,CC/C(=C(/c1ccc(OCCN(C)C)cc1)c1cccc(O)c1)c1ccccc1 [Droloxifene],–,5.43,−5.1,8.49,"tissue selectivity compared to tamoxifen and toremifene, in words ([1]; i.v. 2.5 mg/kg): higher lung but lower pancreas selectivity; AUC in tumor tissues, fold higher than in the normal fatpad [1]: 3.1 fold"
–,–,–,–,–,–,Cc1cc(-c2ccc(/N=N/c3ccc4c(S(=O)(=O)O)cc(S(=O)(=O)O)c(N)c4c3O)c(C)c2)ccc1/N=N/c1ccc2c(S(=O)(=O)O)cc(S(=O)(=O)O)c(N)c2c1O [Evan blue],–,–,–,–,plasma protein binding level (plasma protein): 68%
996,75.4 ng·h/mL,–,3.5,5.7,13.2,"Oc1ccc2c(c1)CC[C@H](c1ccccc1)[C@@H]2c1ccc(OCCN2CCCC2)cc1 [Lasofoxifene, lasofoxifene]",99%,6.36,−6,8.98,bioavailability (in vivo): 26.9%
6118.7,969 ng·h/mL,–,1.4,4.5,6.3,"COc1ccc2c(c1)CCC(c1ccccc1)=C2c1ccc(OCCN2CCCC2)cc1 [Nafoxidine, nafoxidine]",–,6.36,−5.91,8.95,"oral bioavailability, fold higher than lasofoxifene (vs lasofoxifene): 3 fold; tissue selectivity compared to lasofoxifene, in words ([1]; after i.v and p.o. administration): higher selectivity in stomach, liver, fat, fatpad, spleen, kidney, but lower selectivity in heart, tumor and pancreas; exposure in the fat, fold higher than lasofoxifene ([1]; i.v. 2.5 mg/kg): 8 fold; exposure in the spleen, fold higher than lasofoxifene ([1]; i.v. 2.5 mg/kg): 6 fold; bioavailability (in vivo): 83.4%"
929.4,114 ng·h/mL,–,–,–,–,"O=C(c1ccc(OCCN2CCCCC2)cc1)c1c(-c2ccc(O)cc2)sc2cc(O)ccc12 [Raloxifene, raloxifene]",–,–,–,–,–
3621.3,102 ng·h/mL,39.4%,–,–,–,CC/C(=C(\c1ccccc1)c1ccc(OCCN(C)C)cc1)c1ccccc1 [Tamoxifen],98%,–,–,–,"exposure difference in the fat, intestine and skin, tamoxifen vs toremifene ([1]; i.v. 2.5 mg/kg, AUC ratio): 2 fold"
1393,64.9 ng·h/mL,18.5%,5.1,20.9,21.5,"CN(C)CCOc1ccc(/C(=C(/CCCl)c2ccccc2)c2ccccc2)cc1 [Toremifene, toremifene]",92%,5.65,−6,8.76,"tumor drug concentration, fold higher than raloxifene (oral 5 mg/kg, tumor, vs raloxifene): 1.5 fold; drug exposure in the lung, fold increase to tamoxifen (20 mg QD) (toremifene 60 mg QD (3-fold AUC) vs tamoxifen 20 mg QD): 2 fold"
–,–,–,–,–,–,COc1cccc2c1C(=O)c1c(O)c3c(c(O)c1C2=O)C[C@@](O)(C(=O)CO)C[C@@H]3O[C@H]1C[C@H](N)[C@H](O)[C@H](C)O1 [doxorubicin],–,–,–,–,binding affinity to albumin (albumin): 7500 mol/L

# Reference: publication PMC9136610 (Acta Pharmaceutica Sinica. B, 2022)
